Results published in US12076304B2, “Compositions comprising 15-HEPE and methods of treating or preventing hematologic disorders, and/or related diseases” (priority 2020, dated 2024).

Experiments:
NAFLD patients [1] = assay: Phase IIa study in NAFLD patients: adverse events; assay type: in vivo, human
Text: (§1) The study was planned to include 96 evaluable patients with 32 patients randomized per treatment group.

[2] = system: cholestasis induced by BDL; assay: BDL mice: serum biochemistry (ALT, total bilirubin); assay type: in vivo; conditions: for Serum ALT / Serum Total Bilirubin: n = 8
Experimental: Sample Collection: For serum samples, non-fasting blood was collected in serum separate tubes without anticoagulant through direct cardiac puncture and centrifuged at 3,500×g for 4 minutes at 4° C. The supernatant was collected and stored at −80° C. for biochemistry (30 μL) and shipping (all the remaining). For liver samples, left lateral lobe was collected and cut into 6 pieces. Two pieces of left lateral lobe were fixed in Bouin's solution and then embedded in paraffin. Samples were stored at room temperature for histological analysis. The other 2 pieces of left lateral lobe were embedded in O.C.T. compound and quick frozen in liquid nitrogen. Samples were stored at −80° C. The remaining pieces of left lateral lobe was snap frozen in liquid nitrogen and stored at −80° C. for gene expression analyses. Right medial lobe, left medial lobe, right lobe and caudate lobe were snap frozen in liquid nitrogen and stored at −80° C. for shipping.

NAFLD patients [3] = assay: Phase IIa study in NAFLD patients: lipid profile and lipidomics; assay type: in vivo, human; conditions: for Triglycerides (median placebo-corrected % change from baseline): 2 g
Experimental: as §1
Clinical Laboratory Safety Tests: Safety tests were performed for hematology, serum biochemistry, coagulation, lipid profile, and urinalysis: Blood and urine samples were taken as per the Study Flow Chart in Table 19 for routine hematology, serum biochemistry, coagulation and urinalysis tests, along with a Lipid Profile. All samples were analyzed in the central laboratory. All subjects were fasted for a minimum of 8 hours prior to blood sampling. If subjects had not fasted for a minimum of 8 hours, the duration of fasting time was recorded, and subjects encouraged to fast appropriately for the next clinical visit. • Hematology: Full blood count to include red cell count, hemoglobin, hematocrit, white cell count, differential white cell count, platelet count and reticulocyte count. • Serum biochemistry: Urea (blood urea nitrogen; BUN), creatinine, uric acid, total bilirubin, Indirect and Direct Bilirubin, sodium, bicarbonate potassium, phosphorus, calcium chloride, alkaline phosphatase (ALP), aspartate aminotransferase (AST), alanine aminotransferase (ALT), ALT/AST ratio, lactate dehydrogenase (LDH), creatine phosphokinase (CPK), albumin, total protein, cholesterol, triglycerides, glucose, C-reactive protein (CRP). • Coagulation: prothrombin time (PT), international normalized ratio (INR) and activated partial […]. • Lipid Profile: LDL, HDL, and VLDL-C. • Urinalysis: pH, protein, glucose, blood, ketones, leukocytes, leukocyte esterase, bilirubin, specific gravity, urobilinogen and nitrate. Reflex micro if blood, protein, leukocyte esterase or nitrate/nitrite are present.
Exploratory analysis: The exploratory analysis included analysis of lipid and metabolic parameters including total cholesterol, triglycerides, very low-density lipoprotein cholesterol (VLDL-C), low density lipoprotein cholesterol (LDL-C), high density lipoprotein cholesterol (HDL-C), non-high-density lipoprotein cholesterol (non-HDL-C), remnant-like particle cholesterol (RLP-C), fasting glucose, insulin, free fatty acids and hemoglobin A1C (HbA1C). Additional exploratory analysis included high throughput lipidomics and proteomics.

NAFLD patients [4] = assay: Phase IIa study in NAFLD patients: panel of protein biomarkers (proteomics); assay type: in vivo, human
Text: as §1

NAFLD patients [5] = assay: Phase IIa study in NAFLD patients: ALP and liver fibrosis markers; assay type: in vivo, human; conditions: 2 g
Experimental: as §1
Clinical Laboratory Safety Tests: Safety tests were performed for hematology, serum biochemistry, coagulation, lipid profile, and urinalysis: Blood and urine samples were taken as per the Study Flow Chart in Table 19 for routine hematology, serum biochemistry, coagulation and urinalysis tests, along with a Lipid Profile. All samples were analyzed in the central laboratory. All subjects were fasted for a minimum of 8 hours prior to blood sampling. […]

Alpha-SMA mRNA = assay: UUO mice kidney quantitative RT-PCR, Alpha-SMA; assay type: in vivo
Experimental: Quantitative RT-PCR: Total ribonucleic acid (RNA) was extracted from kidney samples using RNAiso (Takara Bio, Japan) according to the manufacturer's instructions. One μg of RNA was reverse-transcribed using a reaction mixture containing […] (mM) of magnesium chloride (MgCl2) (F. Hoffmann-La Roche, Switzerland), 40 U RNase inhibitor (Toyobo, Japan), 0.5 mM dNTP (Promega, USA), 6.28 μM random hexamer (Promega), 5× first strand buffer (Promega), 10 mM dithiothreitol (Invitrogen, USA) and 200 U MMLV-RT (Invitrogen) in a final volume of 20 μL. The reaction was carried out for 1 hour at 37° C., followed by 5 minutes at 99° C. Real-time PCR was performed using real-time PCR DICE and TB Green™ Premix Ex Taq™ II (Takara Bio). To calculate the relative […] (mRNA) expression level, the expression of each gene (e.g., α-SMA, TIMP-1, TGF-β and Collagen Type 1) was normalized to that of reference gene 36B4 (gene symbol: Rplp0). Information regarding the PCR-primer sets and the plate layout are described in Tables 1 and 2.

NAFLD patients [6] = assay: Phase IIa study in NAFLD patients: OWL liver care test; assay type: in vivo, human
Text: as §1
OWL Liver Care is a test that was developed based on the plasma lipidomics in biopsy-confirmed NASH patients and provides high predictive values. OWL Liver Care has an area under the curve (AUC) of 0.88 for distinguishing NAFLD and normal liver patients and an AUC of 0.79 for distinguishing NAFLD without steatohepatitis and NASH patients.

[7] = 50 mg/kg PO QD Day 0-13, Day 14, mean ± SD
[8] = 250 mg/kg PO QD Day 0-13, Day 14, mean ± SD
[9] = 500 mg/kg PO QD Day 0-13, Day 14, mean ± SD
[10] = 50 mg/kg PO QD Day 0-13, normalized to 36B4, Sham 1.00, mean ± SD
[11] = 1 g per day, baseline diagnosis NASH (19 at baseline)
[12] = 1 g per day, baseline diagnosis No NAFLD (4 at baseline)
[13] = 1 g per day, baseline diagnosis Steatosis (5 at baseline)
[14] = 2 g per day, baseline diagnosis NASH (12 at baseline)
[15] = 2 g per day, baseline diagnosis No NAFLD (3 at baseline)
[16] = 2 g per day, baseline diagnosis Steatosis (14 at baseline)

15-HEPE [DS102]
Death, patients n (NAFLD patients [1]; 1 g (n = 32)): 0
Patients with ≥1 AE related to study drug, % (NAFLD patients [1]; 1 g (n = 32)): (6.3) %
Patients with ≥1 AE, % (NAFLD patients [1]; 1 g (n = 32)): (59.4) %
Death, patients n (NAFLD patients [1]; 2 g (n = 30)): 0
Patients with ≥1 AE related to study drug, % (NAFLD patients [1]; 2 g (n = 30)): (10.0) %
Patients with ≥1 AE, % (NAFLD patients [1]; 2 g (n = 30)): (50.0) %
Patients with ≥1 SAE, % (NAFLD patients [1]; 2 g (n = 30)): (3.3) %
drug related serious adverse events (SAEs) (NAFLD patients [1]; NAFLD patients, 1 g or 2 g per day, 16 weeks): no drug related serious adverse events
safety and tolerance (NAFLD patients [1]; NAFLD patients, 1 g or 2 g per day, 16 weeks, compared to placebo): safe and well tolerated
Serum ALT [2, 7]: 402 ± 112 U/L
Serum Total Bilirubin [2, 7]: 26.8 ± 6.9 mg/dL
Serum ALT [2, 8]: 351 ± 155 U/L
Serum Total Bilirubin [2, 8]: 23.5 ± 9.8 mg/dL
Serum ALT [2, 9]: 383 ± 147 U/L
Serum Total Bilirubin [2, 9]: 26.2 ± 6.1 mg/dL
serum ALT level vs Vehicle group ([2]; 50, 250 and 500 mg/kg PO QD): no significant differences
serum total bilirubin level vs Vehicle group ([2]; 50, 250 and 500 mg/kg PO QD): no significant differences
Triglycerides (median placebo-corrected % change from baseline) (NAFLD patients [3]; Week 16, Full Analysis Set): −40.2%
Triglycerides (median placebo-corrected % change from baseline) (NAFLD patients [3]; Week 16, Subgroup: High Triglycerides (>200 mg/dL)): −20.4%
Triglycerides (median placebo-corrected % change from baseline) (NAFLD patients [3]; Week 16, Subgroup: Triglycerides > Upper Limit Normal (>150 mg/dL)): −39.0%
levels of multiple glycerophospholipid groups (NAFLD patients [3]; NAFLD patients, 2 g per day): significantly increased
levels of multiple hepatotoxic diglycerides (NAFLD patients [3]; NAFLD patients, 2 g per day): significantly decreased
triglyceride levels (NAFLD patients [3]; NAFLD patients, Week 16): lowered
lipid profile (total cholesterol, VLDL-C, non-HDL-C, RLP cholesterol, triglycerides) (NAFLD patients [3]; NAFLD patients, Week 16, safety analysis set): significantly improved
TR (protein level) (NAFLD patients [4]; 1 g): significant reductions
proteins that passed the 1st threshold based on the Benjamini-Hochberg testing (NAFLD patients [4]; 1 g group, Placebo group 0 proteins): 1
NASH drug development targets (CCR215 signaling, Galectin3, AOC3) (NAFLD patients [4]; 2 g): decreased
inflammatory and pro-fibrotic proteins (protein expression) (NAFLD patients [4]; 2 g, Table 21: PAI-1, TIMP-1, DPP4, TLT2, CCL16, MCP-1, SAA4, PI3, TR, LILRB1, TNRSF11A, Table 22: TL12, AOC3, PRSS2): decreased
number of markers (inflammation, fibrosis, lipid metabolism, apoptosis, chemotaxis) with significantly downregulated expression (NAFLD patients [4]; 2 g, panel of greater than 350 protein biomarkers): over 150
expression of multiple circulating chemokines (NAFLD patients [4]; NAFLD patients, vs placebo): decreased
expression of multiple proteins associated with increased cardiovascular risk (NAFLD patients [4]; NAFLD patients, vs placebo): decreased
expression of multiple tumor necrosis factor receptor superfamily members (NAFLD patients [4]; NAFLD patients, vs placebo): decreased
expression of multiple vascular adhesion molecules (NAFLD patients [4]; NAFLD patients, vs placebo): decreased
alkaline phosphate (ALP) (NAFLD patients [5]): reduced
multiple markers for liver fibrosis (NAFLD patients [5]): reduced
Alpha-SMA relative mRNA expression level (Alpha-SMA mRNA; [10]): 3.74 ± 0.81
Alpha-SMA relative mRNA expression level (Alpha-SMA mRNA; 500 mg/kg PO QD Day 0-13, normalized to 36B4, Sham 1.00, mean ± SD): 5.54 ± 1.54
OWL test Change in Diagnosis (Week 16 vs. baseline): Improvement, patients (NAFLD patients [6]; [11]): 5
OWL test Change in Diagnosis (Week 16 vs. baseline): Stable, patients (NAFLD patients [6]; [11]): 14
OWL test Change in Diagnosis (Week 16 vs. baseline): Stable, patients (NAFLD patients [6]; [12]): 3
OWL test Change in Diagnosis (Week 16 vs. baseline): Worsening, patients (NAFLD patients [6]; [12]): 1
OWL test Change in Diagnosis (Week 16 vs. baseline): Stable, patients (NAFLD patients [6]; [13]): 2
OWL test Change in Diagnosis (Week 16 vs. baseline): Worsening, patients (NAFLD patients [6]; [13]): 3
OWL test Change in Diagnosis (Week 16 vs. baseline): Improvement, patients (NAFLD patients [6]; [14]): 5
OWL test Change in Diagnosis (Week 16 vs. baseline): Stable, patients (NAFLD patients [6]; [14]): 7
OWL test Change in Diagnosis (Week 16 vs. baseline): Stable, patients (NAFLD patients [6]; [15]): 2*, **
OWL test Change in Diagnosis (Week 16 vs. baseline): Worsening, patients (NAFLD patients [6]; [15]): 1
OWL test Change in Diagnosis (Week 16 vs. baseline): Improvement, patients (NAFLD patients [6]; [16]): 1
OWL test Change in Diagnosis (Week 16 vs. baseline): Stable, patients (NAFLD patients [6]; [16]): 9
OWL test Change in Diagnosis (Week 16 vs. baseline): Worsening, patients (NAFLD patients [6]; [16]): 4
OWL liver care diagnosed NASH (NAFLD patients [6]; NAFLD patients, dose dependent, vs placebo at Week 16): significantly improved and normalized

CCCCCC(O)/C=C/C=C\C/C=C\CCCCCCC(=O)O (stereo not drawn) [DS109, 15-HETrE]
Alpha-SMA relative mRNA expression level (Alpha-SMA mRNA; 5 mg/kg PO QD Day 0-13, normalized to 36B4, Sham 1.00, mean ± SD): 3.87 ± 0.82
Alpha-SMA relative mRNA expression level (Alpha-SMA mRNA; [10]): 4.61 ± 3.15
Alpha-SMA relative mRNA expression level (Alpha-SMA mRNA; 250 mg/kg PO QD Day 0-13, normalized to 36B4, Sham 1.00, mean ± SD): 4.85 ± 1.22
